The values below come from patent US20160303245A1, “FATTY ACID DERIVATIVES OF DIMERIC INHIBITORS OF PSD-95” (UNIVERSITY OF COPENHAGEN, priority 2013, published 2016).

The target in series [1] is T1, HSA (Homo sapiens, UniProt P02768).
T1 construct: purchased Sovicell GMBH, Leipzig, Germany
The series is described as follows: Transil XL HSA binding assay (immobilized HSA, unbound compound quantified by RP-HPLC). The method, then: The synthesized FA-linked dimeric ligands (1-12) were evaluated for their HSA affinity using a Transil^XL HSA binding assay kit (Sovicell GMBH, Leipzig, Germany). […] The assay kit consisted of prefilled wells with increasing concentrations of immobilized HSA as well as two control wells without HSA. The HSA had been immobilized in a random fashion to ensure that all binding sites on HSA were available. To conduct the assay, the wells were incubated with a known concentration of the tested compounds, and the unbound amount of compound was quantified using analytical RP-HPLC (C8 column). The fraction of unbound drug (fu) for each data point was calculated from the RP-HPLC data by comparison to a control sample without HSA. […] In eq. 1, it is assumed that the concentration of drug-bound HSA ([HSA-D]) is much lower than the total concentration of HSA in the well ([HSA-D]<<cHSA). The assay kit has been designed such that the assumption is valid for compounds where fu>1%. The calculated KD-values were used to calculate fb at physiological concentration of HSA (588 μM) using equation 2.

Series [2] has as its target PSD-95 PDZ1-2 (Homo sapiens, UniProt P78352). The series is described as follows: In vitro fluorescence polarization (FP) competition binding assay, in TBS and modified with 1% HSA. As to the method: Affinity to PSD-95 was measured using an in vitro fluorescence polarization (FP) assay as described by Bach et al (PNAS USA, 2012, 109, 3317-3322). First, a saturation binding curve was obtained to determine KD values for the interaction between a dimeric fluorescent probe and PSD-95 PDZ1-2. Increasing concentrations of PDZ1-2 were added to a constant concentration (0.5 nM) of the probe. The fluorescence polarization of the samples was measured at excitation/emission wavelengths of 635/670 nm and the FP values were fitted to a one site binding model using the program GraphPad Prism. […] The FP values were fitted to a one site competition (variable slope) model in GraphPad Prism. The resulting IC50 were converted to competition inhibition constants, Ki values, as described (Nikolovska-Coleska et al, Anal Biochem, 2004, 332, 261-273). The modified FP assay was conducted as described above with 1% HSA in the assay. The synthesized FA-linked dimeric ligands were evaluated for their affinity to PSD-95 PDZ1-2 in the FP assay. […] We first measured the affinities using a simple tris-buffered saline (TBS) buffer (Table 2, FIG. 3A); but furthermore, we investigated if HSA influenced the ability of the FA-linked dimers to bind PSD95 PDZ1-2 by conducting the FP assay with HSA present in the assay buffer (Table 2, FIG. 3B). […] For a traditional small-molecule drug, it is commonly accepted that the unbound fraction of the drug is free to diffuse across membranes and exerts the physiological effect by interacting with its target (Berezhkovskiy et al, J Pharm Sci 2007, 96, 249-257). I.e. if the drug is bound to another molecule, then it cannot interact with the target at the same time.

Setting [3] is: FP in TBS with 1% HSA (~150 μM), mean ± SEM, n ≧ 3, read-out: Ki(PSD95) + HSA.

Where “and” joins values, the source holds several entries; their conditions need not be identical. Identical values can stand only once. Like-named read-outs stand apart in the source and are kept apart here.

Chain of PSD-95 PDZ1-2 (P78352 61-249 limits assumed): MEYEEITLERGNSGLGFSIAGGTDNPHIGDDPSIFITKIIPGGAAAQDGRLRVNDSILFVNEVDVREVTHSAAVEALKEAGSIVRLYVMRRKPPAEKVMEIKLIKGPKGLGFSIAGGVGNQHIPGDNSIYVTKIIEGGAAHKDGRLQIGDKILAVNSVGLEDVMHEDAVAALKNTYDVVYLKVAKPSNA
T1 sequence (P02768 25-609): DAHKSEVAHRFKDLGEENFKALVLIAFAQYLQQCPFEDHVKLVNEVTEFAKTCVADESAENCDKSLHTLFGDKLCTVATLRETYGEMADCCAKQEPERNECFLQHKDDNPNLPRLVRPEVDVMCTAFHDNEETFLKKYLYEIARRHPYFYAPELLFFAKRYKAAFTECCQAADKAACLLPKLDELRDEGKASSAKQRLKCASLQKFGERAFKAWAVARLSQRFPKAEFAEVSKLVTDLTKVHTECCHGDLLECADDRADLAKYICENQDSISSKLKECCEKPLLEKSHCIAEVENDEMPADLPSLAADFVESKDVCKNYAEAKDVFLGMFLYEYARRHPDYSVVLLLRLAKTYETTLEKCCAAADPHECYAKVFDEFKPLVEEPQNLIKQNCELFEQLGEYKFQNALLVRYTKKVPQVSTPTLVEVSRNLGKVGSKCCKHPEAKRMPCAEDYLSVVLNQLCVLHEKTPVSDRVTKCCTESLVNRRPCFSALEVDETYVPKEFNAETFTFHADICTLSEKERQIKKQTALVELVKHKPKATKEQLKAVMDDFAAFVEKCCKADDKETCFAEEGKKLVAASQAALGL

In series [1], `CCCCCCCCCCCCCCCCCC(=O)N[C@@H](CCC(=O)N(CCOCCOCCC(=O)N[C@H](C(=O)N[C@@H](CCC(=O)O)C(=O)N[C@H](C(=O)N[C@@H](CC(=O)O)C(=O)N[C@H](C(=O)O)C(C)C)[C@@H](C)O)[C@@H](C)CC)CCOCCOCCC(=O)N[C@H](C(=O)N[C@@H](CCC(=O)O)C(=O)N[C@H](C(=O)N[C@@H](CC(=O)O)C(=O)N[C@H](C(=O)O)C(C)C)[C@@H](C)O)[C@@H](C)CC)C(=O)O` [Compound 15] came in with a Kd of 55 ± 3.4 µM and a fraction unbound of 0.268.

Take `CC[C@H](C)[C@H](NC(=O)CCOCCOCCN(CCOCCOCCC(=O)N[C@H](C(=O)N[C@@H](CCC(=O)O)C(=O)N[C@H](C(=O)N[C@@H](C)C(=O)N[C@H](C(=O)O)C(C)C)[C@@H](C)O)[C@@H](C)CC)C(=O)CC[C@H](NC(=O)CCCCCCCCCCCCCCCCC(=O)O)C(=O)O)C(=O)N[C@@H](CCC(=O)O)C(=O)N[C@H](C(=O)N[C@@H](C)C(=O)N[C@H](C(=O)O)C(C)C)[C@@H](C)O` [Compound 8]: in series [1], the fraction unbound amounted to 0.186.

Consider `CC[C@H](C)[C@H](NC(=O)CCOCCOCCN(CCOCCOCCC(=O)N[C@H](C(=O)N[C@@H](CCC(=O)O)C(=O)N[C@H](C(=O)N[C@@H](C)C(=O)N[C@H](C(=O)O)C(C)C)[C@@H](C)O)[C@@H](C)CC)C(=O)CCCNC(=O)CCCCCCCCCCC(=O)O)C(=O)N[C@@H](CCC(=O)O)C(=O)N[C@H](C(=O)N[C@@H](C)C(=O)N[C@H](C(=O)O)C(C)C)[C@@H](C)O` [Compound 2], for which the fraction unbound in series [1] stood at 0.247.

In series [1], `CC[C@H](C)[C@H](NC(=O)CCOCCOCCN(CCOCCOCCC(=O)N[C@H](C(=O)N[C@@H](CCC(=O)O)C(=O)N[C@H](C(=O)N[C@@H](C)C(=O)N[C@H](C(=O)O)C(C)C)[C@@H](C)O)[C@@H](C)CC)C(=O)CC[C@H](NC(=O)CCCCCCCCCCC(=O)O)C(=O)O)C(=O)N[C@@H](CCC(=O)O)C(=O)N[C@H](C(=O)N[C@@H](C)C(=O)N[C@H](C(=O)O)C(C)C)[C@@H](C)O` [Compound 6] yielded a fraction unbound of 0.301.

Consider `CCCCCCCCCCCCCCCCCC(=O)NCCCCC(=O)N(CCOCCOCCC(=O)N[C@H](C(=O)N[C@@H](CCC(=O)O)C(=O)N[C@H](C(=O)N[C@@H](C)C(=O)N[C@H](C(=O)O)C(C)C)[C@@H](C)O)[C@@H](C)CC)CCOCCOCCC(=O)N[C@H](C(=O)N[C@@H](CCC(=O)O)C(=O)N[C@H](C(=O)N[C@@H](C)C(=O)N[C@H](C(=O)O)C(C)C)[C@@H](C)O)[C@@H](C)CC` [Compound 11], for which the fraction unbound in series [1] came out at 0.078. Also, the inhibitory constant (Ki) in series [2] (setting [3]) was 1.89 ± 0.1 µM.

In series [1], `CC[C@H](C)[C@H](NC(=O)CCOCCOCCN(CCOCCOCCC(=O)N[C@H](C(=O)N[C@@H](CCC(=O)O)C(=O)N[C@H](C(=O)N[C@@H](CC(=O)O)C(=O)N[C@H](C(=O)O)C(C)C)[C@@H](C)O)[C@@H](C)CC)C(=O)CCCNC(=O)CCCCCCCCCCCCCCCCC(=O)O)C(=O)N[C@@H](CCC(=O)O)C(=O)N[C@H](C(=O)N[C@@H](CC(=O)O)C(=O)N[C@H](C(=O)O)C(C)C)[C@@H](C)O` [Compound 14] registered a Kd of 116 ± 7.6 µM and a fraction unbound of 0.436.

Consider `CC[C@H](C)[C@H](NC(=O)CCOCCOCCN(CCOCCOCCC(=O)N[C@H](C(=O)N[C@@H](CCC(=O)O)C(=O)N[C@H](C(=O)N[C@@H](C)C(=O)N[C@H](C(=O)O)C(C)C)[C@@H](C)O)[C@@H](C)CC)C(=O)CCCCNC(=O)CCCCCCCCCCC(=O)O)C(=O)N[C@@H](CCC(=O)O)C(=O)N[C@H](C(=O)N[C@@H](C)C(=O)N[C@H](C(=O)O)C(C)C)[C@@H](C)O` [Compound 10], for which, in series [1], the fraction unbound amounted to 0.615.

Regarding `CCCCCCCCCCCC(=O)NCCCCC(=O)N(CCOCCOCCC(=O)N[C@H](C(=O)N[C@@H](CCC(=O)O)C(=O)N[C@H](C(=O)N[C@@H](C)C(=O)N[C@H](C(=O)O)C(C)C)[C@@H](C)O)[C@@H](C)CC)CCOCCOCCC(=O)N[C@H](C(=O)N[C@@H](CCC(=O)O)C(=O)N[C@H](C(=O)N[C@@H](C)C(=O)N[C@H](C(=O)O)C(C)C)[C@@H](C)O)[C@@H](C)CC` [Compound 9], the unbound share (fraction unbound) in series [1] came to 0.271.

The compound `CCCCCCCCCCCC(=O)N[C@@H](CCC(=O)N(CCOCCOCCC(=O)N[C@H](C(=O)N[C@@H](CCC(=O)O)C(=O)N[C@H](C(=O)N[C@@H](C)C(=O)N[C@H](C(=O)O)C(C)C)[C@@H](C)O)[C@@H](C)CC)CCOCCOCCC(=O)N[C@H](C(=O)N[C@@H](CCC(=O)O)C(=O)N[C@H](C(=O)N[C@@H](C)C(=O)N[C@H](C(=O)O)C(C)C)[C@@H](C)O)[C@@H](C)CC)C(=O)O` [Compound 5] came in with a fraction unbound in series [1] of 0.147.

In the case of `CC[C@H](C)[C@H](NC(=O)CCOCCOCCN(CCOCCOCCC(=O)N[C@H](C(=O)N[C@@H](CCC(=O)O)C(=O)N[C@H](C(=O)N[C@@H](CC(=O)O)C(=O)N[C@H](C(=O)O)C(C)C)[C@@H](C)O)[C@@H](C)CC)C(=O)[C@H](CCCNC(=N)N)NC(=O)[C@H](CCCNC(=N)N)NC(=O)[C@H](CCCNC(=N)N)NC(=O)[C@H](CCC(N)=O)NC(=O)[C@H](CCCNC(=N)N)NC(=O)[C@H](CCCNC(=N)N)NC(=O)[C@H](CCCCN)NC(=O)[C@H](CCCCN)NC(=O)[C@H](CCCNC(=N)N)NC(=O)CNC(=O)[C@@H](N)Cc1ccc(O)cc1)C(=O)N[C@@H](CCC(=O)O)C(=O)N[C@H](C(=O)N[C@@H](CC(=O)O)C(=O)N[C@H](C(=O)O)C(C)C)[C@@H](C)O` [UCCB01-144, reference compound], in series [1] (calculated from KD at physiological concentration of HSA (588 μM), equation 2), the “fb (%), HSA bound fraction” value was 65% and 65.3 ± 2.9%. In addition, the fraction unbound in series [1] (calculated from equation 2 at HSA concentration of 150 μM, read-out: fu (%), calculated fraction of unbound drug) was 0.679. For the same compound, the Kd in series [1] (mean ± SEM, n = 3, read-out: KD(HSA)) came out at 318 µM.

The compound `CCCCCCCCCCCCCCCCCC(=O)NCCCC(=O)N(CCOCCOCCC(=O)N[C@H](C(=O)N[C@@H](CCC(=O)O)C(=O)N[C@H](C(=O)N[C@@H](C)C(=O)N[C@H](C(=O)O)C(C)C)[C@@H](C)O)[C@@H](C)CC)CCOCCOCCC(=O)N[C@H](C(=O)N[C@@H](CCC(=O)O)C(=O)N[C@H](C(=O)N[C@@H](C)C(=O)N[C@H](C(=O)O)C(C)C)[C@@H](C)O)[C@@H](C)CC` [Compound 3] returned a Kd in series [1] of 4.8 µM. Besides, the fraction unbound in series [1] is 0.031. In addition, the Ki is 0.0572 µM in series [2] (FP data (TBS+HSA) corrected for calculated fu, read-out: Ki(PSD95), free ligand); 1.89 ± 0.155 µM in series [2] (setting [3]); 0.0111 µM in series [2] (FP in TBS, mean ± SEM, n ≧ 3, read-out: Ki(PSD95)).

The compound `CC[C@H](C)[C@H](NC(=O)CCOCCOCCN(CCOCCOCCC(=O)N[C@H](C(=O)N[C@@H](CCC(=O)O)C(=O)N[C@H](C(=O)N[C@@H](C)C(=O)N[C@H](C(=O)O)C(C)C)[C@@H](C)O)[C@@H](C)CC)C(=O)CCCCNC(=O)CCCCCCCCCCCCCCCCC(=O)O)C(=O)N[C@@H](CCC(=O)O)C(=O)N[C@H](C(=O)N[C@@H](C)C(=O)N[C@H](C(=O)O)C(C)C)[C@@H](C)O` [Compound 12] returned a fraction unbound in series [1] of 0.083.
